Measurements: patent publication US11014961B2, “Self-labeling miniproteins and conjugates comprising them” (priority 2017, dated 2021)
No end group written: not given here.

Experiments:
Type in all cases: biochemical
[1] = Second order rate constant of the reaction between miniprotein (MP) and capture agent (CA), LC-MS TIC peak integration; details: for Second order rate constant: 0.1 mM MP, 0.5 mM CA
[2] = Labeling conversion of MP with the selection capture agent (LC-MS TIC); details: 0.5 mM CA, 0.1 mM MP, 5 mM TCEP, 1× selection buffer, pH 7.4
Description: All 10 putative self-labeling MPs were chemically synthesized (MP01 and MP02 were additionally made with the full C-terminal constant region). To determine the importance of the C-terminal tag, a kinetic analysis on MP01 was conducted comparing the sequence with and without the tag. […] The remainder of the MPs all reacted with varying second order rate constants and to differing product distributions from multiple cysteine labeling sites (Table 3). […] Of the sequences containing multiple cysteines, all reacted to differing extents. […] On the other hand, MP08 (SEQ ID NO: 53) reacted sluggishly (0.04 μM^−1 s^−1) to produce singly and doubly labeled species. The sole sequence containing three cysteines, MP05 (SEQ ID NO: 44), yielded a mixture of labeled species within an 8-hour reaction—primarily existing with either 2 or 3 labels with a rapid initial labeling process (0.93±0.11 μM^−1 s^−1). Finally, MP01, 07 and 10 (SEQ ID NOs: 13, 52, and 59, respectively) were probed via proteolytic digest-LC-MS/MS analysis, this confirmed that the cysteines were labeled and not an alternative amino acid. […] Conditions used were 0.5 mM CA, 0.1 mM MP, 5 mM TCEP, 1× selection buffer, pH 7.4.

[3] = Labeling conversion of MP with the modified capture agent (LC-MS TIC); details: 0.5 mM mCA, 0.1 mM MP, 5 mM TCEP, 1× selection buffer, pH 7.4
Description: A solution consisting of 5 mM carboxy-(PEG)12-thiol, 500 mM pentafluorophenyl sulfide, 20 mM triphenylphosphine and 230 mM DIEA in acetonitrile was vortexed and left at room temperature for 4 hours. The reaction was then diluted with 10.6× volume of 95% A: 5% B, solid phase extracted and lyophilized. The resulting material was analyzed by LCMS (method 2). This product will later be referred to as mCA (modified CA).
All 10 putative self-labeling MPs were chemically synthesized (MP01 and MP02 were additionally made with the full C-terminal constant region). To determine the importance of the C-terminal tag, a kinetic analysis on MP01 was conducted comparing the sequence with and without the tag. […] The remainder of the MPs all reacted with varying second order rate constants and to differing product distributions from multiple cysteine labeling sites (Table 3). […] Of the sequences containing multiple cysteines, all reacted to differing extents. […] On the other hand, MP08 (SEQ ID NO: 53) reacted sluggishly (0.04 μM^−1 s^−1) to produce singly and doubly labeled species. The sole sequence containing three cysteines, MP05 (SEQ ID NO: 44), yielded a mixture of labeled species within an 8-hour reaction—primarily existing with either 2 or 3 labels with a rapid initial labeling process (0.93±0.11 μM^−1 s^−1). […]

[4] = 5 mM TCEP, 1× selection buffer pH 7.4, RT, a: average of three MP concentrations, c: labeled 1-3 times, d: labeled 1-2 times

Substance: MHNAYLRKSMRQLCYFRRTLHNIHVMSHRG-NH2 [MP10]
- rate enhancement over a non-selected Cys peptide [1]: ~529 ×
- Second order rate constant [1, 4]: 1.66 ± 0.48^a M^−1 s^−1
- conversion with selection CA [2]: 91%
- conversion with modified CA (mCA) [3]: 96%

Substance: MHQKYKMTKDCFFSFLAHHKKRKLYPMSG-NH2 [MP01]
- Second order rate constant ([1]; 5 mM TCEP, 1× selection buffer pH 7.4, RT): 0.34 M⁻¹ s⁻¹
- Second order rate constant [1, 4]: 0.34 ± 0.06^a/ M^−1 s^−1
- second order rate constant, second MP01 construct ([1]; MP01 construct with C-terminal tag (per Table 3 footnote b), standard conditions): 0.28 M⁻¹ s⁻¹
- Second order rate constant ([1]; footnote b: construct with the full length C-terminal region (-SGSLGHHHHHHRL)): 0.28 ± 0.02^b M^−1 s^−1
- conversion with selection CA [2]: 83%
- conversion with modified CA (mCA) [3]: 91%
